Laboratory results published in paper PMC10099431 (ACS Omega, 2023).
Where two headings read alike, the source gives them in different places.

Assay type: physicochemical
Conditions: 298.15 K; for 100 δx1,3 (preferential solvation parameter of RST by PEG400) / D (derivative of the Gibbs energy of transfer) / G1,3 (Kirkwood–Buff integral, PEG400–RST) / G2,3 (Kirkwood–Buff integral, water–RST) / Vcor (correlation volume): 0.1 MPa

CC(C)c1nc(N(C)S(C)(=O)=O)nc(-c2ccc(F)cc2)c1/C=C/[C@@H](O)C[C@@H](O)CC(=O)[O-].CC(C)c1nc(N(C)S(C)(=O)=O)nc(-c2ccc(F)cc2)c1/C=C/[C@@H](O)C[C@@H](O)CC(=O)[O-].[Ca+2] [RST, (E)-7-[4-(4-fluorophenyl)-6-isopropyl-2-[methyl(methylsulfonyl)amino]pyrimidin-5-yl]-(3R,5S)-3,5-dihydroxyhept-6-enoic acid, calcium salt (2:1)]
100 δx1,3 (preferential solvation parameter of RST by PEG400) (x1 = 0.35): 1.54
D (derivative of the Gibbs energy of transfer) (x1 = 0.35): –7.01 kJ·mol^–1
G1,3 (Kirkwood–Buff integral, PEG400–RST) (x1 = 0.35): –330.5 cm^3·mol^–1
G2,3 (Kirkwood–Buff integral, water–RST) (x1 = 0.35): –542.0 cm^3·mol^–1
Vcor (correlation volume) (x1 = 0.35): 3585 cm^3·mol^–1
100 δx1,3 (preferential solvation parameter of RST by PEG400) (x1 = 0.40): 1.60
D (derivative of the Gibbs energy of transfer) (x1 = 0.40): –6.19 kJ·mol^–1
G1,3 (Kirkwood–Buff integral, PEG400–RST) (x1 = 0.40): –327.6 cm^3·mol^–1
G2,3 (Kirkwood–Buff integral, water–RST) (x1 = 0.40): –554.7 cm^3·mol^–1
Vcor (correlation volume) (x1 = 0.40): 3863 cm^3·mol^–1
100 δx1,3 (preferential solvation parameter of RST by PEG400) (x1 = 0.45): 1.64
D (derivative of the Gibbs energy of transfer) (x1 = 0.45): –5.48 kJ·mol^–1
G1,3 (Kirkwood–Buff integral, PEG400–RST) (x1 = 0.45): –325.4 cm^3·mol^–1
G2,3 (Kirkwood–Buff integral, water–RST) (x1 = 0.45): –568.4 cm^3·mol^–1
Vcor (correlation volume) (x1 = 0.45): 4133 cm^3·mol^–1
δx1,3, highest preferential solvation parameter of RST by PEG400 (x1 = 0.5): 1.65 × 10^–2
100 δx1,3 (preferential solvation parameter of RST by PEG400) (x1 = 0.50): 1.65
D (derivative of the Gibbs energy of transfer) (x1 = 0.50): –4.88 kJ·mol^–1
G1,3 (Kirkwood–Buff integral, PEG400–RST) (x1 = 0.50): –323.8 cm^3·mol^–1
G2,3 (Kirkwood–Buff integral, water–RST) (x1 = 0.50): –584.0 cm^3·mol^–1
Vcor (correlation volume) (x1 = 0.50): 4396 cm^3·mol^–1
100 δx1,3 (preferential solvation parameter of RST by PEG400) (x1 = 0.55): 1.64
D (derivative of the Gibbs energy of transfer) (x1 = 0.55): –4.36 kJ·mol^–1
G1,3 (Kirkwood–Buff integral, PEG400–RST) (x1 = 0.55): –322.8 cm^3·mol^–1
G2,3 (Kirkwood–Buff integral, water–RST) (x1 = 0.55): –601.8 cm^3·mol^–1
Vcor (correlation volume) (x1 = 0.55): 4652 cm^3·mol^–1
100 δx1,3 (preferential solvation parameter of RST by PEG400) (x1 = 0.60): 1.61
D (derivative of the Gibbs energy of transfer) (x1 = 0.60): –3.92 kJ·mol^–1
G1,3 (Kirkwood–Buff integral, PEG400–RST) (x1 = 0.60): –322.0 cm^3·mol^–1
G2,3 (Kirkwood–Buff integral, water–RST) (x1 = 0.60): –621.8 cm^3·mol^–1
Vcor (correlation volume) (x1 = 0.60): 4901 cm^3·mol^–1
100 δx1,3 (preferential solvation parameter of RST by PEG400) (x1 = 0.65): 1.55
D (derivative of the Gibbs energy of transfer) (x1 = 0.65): –3.54 kJ·mol^–1
G1,3 (Kirkwood–Buff integral, PEG400–RST) (x1 = 0.65): –321.5 cm^3·mol^–1
G2,3 (Kirkwood–Buff integral, water–RST) (x1 = 0.65): –643.4 cm^3·mol^–1
Vcor (correlation volume) (x1 = 0.65): 5144 cm^3·mol^–1
100 δx1,3 (preferential solvation parameter of RST by PEG400) (x1 = 0.70): 1.46
D (derivative of the Gibbs energy of transfer) (x1 = 0.70): –3.21 kJ·mol^–1
G1,3 (Kirkwood–Buff integral, PEG400–RST) (x1 = 0.70): –321.0 cm^3·mol^–1
G2,3 (Kirkwood–Buff integral, water–RST) (x1 = 0.70): –664.5 cm^3·mol^–1
Vcor (correlation volume) (x1 = 0.70): 5379 cm^3·mol^–1
100 δx1,3 (preferential solvation parameter of RST by PEG400) (x1 = 0.75): 1.31
D (derivative of the Gibbs energy of transfer) (x1 = 0.75): –2.92 kJ·mol^–1
G1,3 (Kirkwood–Buff integral, PEG400–RST) (x1 = 0.75): –320.4 cm^3·mol^–1
G2,3 (Kirkwood–Buff integral, water–RST) (x1 = 0.75): –682.1 cm^3·mol^–1
Vcor (correlation volume) (x1 = 0.75): 5607 cm^3·mol^–1
100 δx1,3 (preferential solvation parameter of RST by PEG400) (x1 = 0.80): 1.09
D (derivative of the Gibbs energy of transfer) (x1 = 0.80): –2.67 kJ·mol^–1
G1,3 (Kirkwood–Buff integral, PEG400–RST) (x1 = 0.80): –319.6 cm^3·mol^–1
G2,3 (Kirkwood–Buff integral, water–RST) (x1 = 0.80): –691.4 cm^3·mol^–1
Vcor (correlation volume) (x1 = 0.80): 5827 cm^3·mol^–1
100 δx1,3 (preferential solvation parameter of RST by PEG400) (x1 = 0.85): 0.83
D (derivative of the Gibbs energy of transfer) (x1 = 0.85): –2.45 kJ·mol^–1
G1,3 (Kirkwood–Buff integral, PEG400–RST) (x1 = 0.85): –318.5 cm^3·mol^–1
G2,3 (Kirkwood–Buff integral, water–RST) (x1 = 0.85): –687.6 cm^3·mol^–1
Vcor (correlation volume) (x1 = 0.85): 6039 cm^3·mol^–1
100 δx1,3 (preferential solvation parameter of RST by PEG400) (x1 = 0.90): 0.54
D (derivative of the Gibbs energy of transfer) (x1 = 0.90): –2.26 kJ·mol^–1
G1,3 (Kirkwood–Buff integral, PEG400–RST) (x1 = 0.90): –317.0 cm^3·mol^–1
G2,3 (Kirkwood–Buff integral, water–RST) (x1 = 0.90): –668.0 cm^3·mol^–1
Vcor (correlation volume) (x1 = 0.90): 6246 cm^3·mol^–1
100 δx1,3 (preferential solvation parameter of RST by PEG400) (x1 = 0.95): 0.25
D (derivative of the Gibbs energy of transfer) (x1 = 0.95): –2.08 kJ·mol^–1
G1,3 (Kirkwood–Buff integral, PEG400–RST) (x1 = 0.95): –315.3 cm^3·mol^–1
G2,3 (Kirkwood–Buff integral, water–RST) (x1 = 0.95): –633.9 cm^3·mol^–1
Vcor (correlation volume) (x1 = 0.95): 6447 cm^3·mol^–1
100 δx1,3 (preferential solvation parameter of RST by PEG400) (x1 = 1.00): 0.00
D (derivative of the Gibbs energy of transfer) (x1 = 1.00): –1.93 kJ·mol^–1
G1,3 (Kirkwood–Buff integral, PEG400–RST) (x1 = 1.00): –313.7 cm^3·mol^–1
G2,3 (Kirkwood–Buff integral, water–RST) (x1 = 1.00): –590.9 cm^3·mol^–1
Vcor (correlation volume) (x1 = 1.00): 6645 cm^3·mol^–1
